Reference: BindingDB's records for doi:10.1172/JCI119225 (Cedars-Sinai Research Institute, 1997)
pIC50: −log10 of the molar value. Bridge positions count the residues as written; N and C are the ends. Square brackets hold non-standard residues; d marks the D form. Peptide text beside a SMILES is read from it. d2Nal = N[C@H](Cc1ccc2ccccc2c1)C(=O)O

Tests used:
[1] = molecular target: Somatostatin receptor type 3 (Homo sapiens, UniProt P32745)
[2] = molecular target: Somatostatin receptor type 2 (Homo sapiens, UniProt P30874)
Chain of Somatostatin receptor type 2 (P30874 whole entry): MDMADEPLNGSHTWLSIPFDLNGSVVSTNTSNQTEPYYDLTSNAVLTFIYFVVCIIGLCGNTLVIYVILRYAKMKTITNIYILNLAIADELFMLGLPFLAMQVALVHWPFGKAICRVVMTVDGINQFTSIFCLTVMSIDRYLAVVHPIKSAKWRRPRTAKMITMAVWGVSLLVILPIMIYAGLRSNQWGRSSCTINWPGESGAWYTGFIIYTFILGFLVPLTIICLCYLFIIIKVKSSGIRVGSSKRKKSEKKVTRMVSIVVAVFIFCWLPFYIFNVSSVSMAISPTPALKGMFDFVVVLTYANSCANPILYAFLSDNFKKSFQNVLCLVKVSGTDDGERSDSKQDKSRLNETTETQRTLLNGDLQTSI

[3] = molecular target: Somatostatin receptor type 5 (Homo sapiens, UniProt P35346)
Chain of Somatostatin receptor type 5 (P35346 whole entry): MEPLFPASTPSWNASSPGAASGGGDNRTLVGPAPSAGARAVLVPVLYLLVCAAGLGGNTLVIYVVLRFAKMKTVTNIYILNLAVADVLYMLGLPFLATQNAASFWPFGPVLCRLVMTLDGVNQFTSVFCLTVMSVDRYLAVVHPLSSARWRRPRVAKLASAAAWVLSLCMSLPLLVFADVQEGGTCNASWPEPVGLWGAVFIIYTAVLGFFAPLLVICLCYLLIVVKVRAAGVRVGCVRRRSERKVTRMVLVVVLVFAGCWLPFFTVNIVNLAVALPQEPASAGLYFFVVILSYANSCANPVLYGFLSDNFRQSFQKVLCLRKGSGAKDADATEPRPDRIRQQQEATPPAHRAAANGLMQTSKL

[4] = molecular target: Somatostatin receptor type 4 (Homo sapiens, UniProt P31391)
Chain of Somatostatin receptor type 4 (P31391 whole entry): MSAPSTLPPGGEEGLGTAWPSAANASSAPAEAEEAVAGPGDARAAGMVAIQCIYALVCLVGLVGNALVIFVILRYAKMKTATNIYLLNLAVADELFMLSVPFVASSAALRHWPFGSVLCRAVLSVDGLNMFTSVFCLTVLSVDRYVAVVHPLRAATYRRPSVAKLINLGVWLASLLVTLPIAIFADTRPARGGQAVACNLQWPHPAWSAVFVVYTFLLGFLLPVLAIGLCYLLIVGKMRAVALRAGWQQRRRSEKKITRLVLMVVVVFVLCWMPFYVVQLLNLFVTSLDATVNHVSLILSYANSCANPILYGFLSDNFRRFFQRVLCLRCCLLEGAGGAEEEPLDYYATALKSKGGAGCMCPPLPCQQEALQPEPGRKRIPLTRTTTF

Chain of Somatostatin receptor type 3 (P32745 whole entry): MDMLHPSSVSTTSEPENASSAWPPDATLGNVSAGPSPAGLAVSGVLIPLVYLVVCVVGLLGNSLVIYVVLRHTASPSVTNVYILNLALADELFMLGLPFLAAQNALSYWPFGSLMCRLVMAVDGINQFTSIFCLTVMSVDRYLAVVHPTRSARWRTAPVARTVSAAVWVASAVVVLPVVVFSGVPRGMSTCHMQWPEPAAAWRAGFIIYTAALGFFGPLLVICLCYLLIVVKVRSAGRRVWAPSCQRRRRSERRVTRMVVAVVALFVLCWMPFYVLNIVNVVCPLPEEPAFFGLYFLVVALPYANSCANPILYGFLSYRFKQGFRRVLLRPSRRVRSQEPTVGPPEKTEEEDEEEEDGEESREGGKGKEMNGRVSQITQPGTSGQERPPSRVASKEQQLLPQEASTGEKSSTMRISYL

Row | pIC50 [2] | pIC50 [3] | pIC50 [4] | Compound | pIC50 [1]
1 | 7.82 | 9.43 | – | C[C@@H](O)[C@@H]1NC(=O)[C@H](CCCCN)NC(=O)[C@@H](Cc2c[nH]c3ccccc23)NC(=O)[C@H](Cc2ccccc2)NC(=O)[C@H](Cc2ccccc2)NC(=O)[C@H](N)CSSC[C@H](C(N)=O)NC(=O)[C@H](Cc2ccccc2)NC1=O (H-[dC]FF[dW]KTF[dC]-NH2; disulfide 1-8) | 7.21
2 | – | – | – | CC(C)[C@@H]1NC(=O)[C@H](CCCCN)NC(=O)[C@@H](Cc2c[nH]c3ccccc23)NC(=O)[C@H](Cc2ccc(O)cc2)NC(=O)[C@@H](NC(=O)[C@H](N)Cc2ccc3ccccc3c2)CSSC[C@@H](C(=O)N[C@H](C(N)=O)[C@@H](C)O)NC1=O [3-(2-Naphtyl)-D-Ala-L-Cys(1)-L-Tyr-D-Trp-L-Lys-L-Val-L-Cys(1)-L-Thr-NH2] | 6.97
3 | – | – | 6.88 | C[C@@H](O)[C@H](NC(=O)[C@H](Cc1ccccc1)NC(=O)[C@@H](NC(=O)[C@H](CCCCN)NC(=O)[C@@H](Cc1c[nH]c2ccccc12)NC(=O)[C@H](Cc1ccccc1)NC(=O)[C@H](Cc1ccccc1)NC(=O)[C@H](N)Cc1ccccc1)[C@@H](C)O)C(N)=O [CAS_133073-82-2] (H-[dF]FF[dW]KTFT-NH2) | –
4 | 6.88 | 7.92 | 6.63 | CC(C)[C@H](NC(=O)[C@H](CCCCN)NC(=O)[C@@H](Cc1c[nH]c2ccccc12)NC(=O)[C@H](Cc1ccc(O)cc1)NC(=O)[C@H](Cc1ccccc1)NC(=O)[C@H](N)Cc1ccccc1)C(=O)N[C@@H](Cc1ccccc1)C(=O)N[C@H](Cc1ccc2ccccc2c1)C(N)=O [CAS_150155-61-6] (H-[dF]FY[dW]KVF[d2Nal]-NH2) | 6.75
5 | – | – | – | CC[C@@H]1NC(=O)[C@H](CCCCN)NC(=O)[C@@H](Cc2c[nH]c3ccccc23)NC(=O)[C@H](Cc2ccc(O)cc2)NC(=O)[C@@H](NC(=O)[C@H](N)Cc2ccccc2)CSSC[C@@H](C(=O)N[C@H](C(N)=O)[C@@H](C)O)NC1=O [D-Phe-L-Cys(1)-L-Tyr-D-Trp-L-Lys-L-Abu-L-Cys(1)-L-Thr-NH2] | 7.05

Row | Compound | pIC50 [2] | pIC50 [3] | pIC50 [4] | pIC50 [1]
6 | CC[C@@H]1NC(=O)[C@H](CCCCN)NC(=O)[C@@H](Cc2c[nH]c3ccccc23)NC(=O)[C@H](Cc2ccc(O)cc2)NC(=O)[C@@H](NC(=O)[C@@H](Cc2ccccc2)NC(=O)CN2CCN(CCO)CC2)CSSC[C@@H](C(=O)N[C@H](C(N)=O)[C@@H](C)O)NC1=O [BIM-23190] | – | – | 6.00 | –
